Results on five compounds are retold here after patent US20090155785A1, “REAL-TIME COLORIMETRIC SCREENING INHIBITORS OF ENDONUCLEASE WITH GOLD NANOPARTICLE SUBSTRATE” (NORTHWESTERN UNIVERSITY, priority 2007, published 2009).

Test [1] has as its system DNase I. Kind of test: Colorimetric DNase I inhibition assay, ligated gold nanoparticle aggregates with linker oligonucleotide (Example 2). The settings on record: for t (releasing time; time required to hydrolyze 50% of the aggregates): inhibitor 1 μM, DNase I 15 units/ml, extinction at 520 nm, ligated aggregates, control 9.5 min. The test is classed as biochemical. The procedure:
A typical screening experiment was slated by adding the DNase I to solutions of the gold nanoparticle aggregates in the presence of one of the DNA binding molecules, amsacrine (AMSA), anthrquinone-2-carboxylic acid (AQ2A), 9-aminoacridine (9-AA), ellipticine (EIPT), daunorubicin (DNR), ethidium bromide (EB) and 4′,6-diamidedino-2-phenylindole (DAPI) (1 μM), respectively. The color changes of the solutions were monitored at 520 nm by UV-vis spectrometry over time (sample scan rate=2 min^−1). The inhibitors can decrease DNase I activity and increase the hydrolysis time and the corresponding time required for a color change in the solution. Thus, we could determine the relative activities of different endonuclease inhibitors by measuring the time required to hydrolyze 50% of the aggregates (t). […] The hydrolysis time is consistent with relative binding affinities of inhibitors to DNA by determining the melting temperature (Tm) of duplex DNA at 260 nm in the presence of each DNA-binding molecule.
High-throughput screening is widely used for the identification of hit compounds from combinatorial libraries. (See P. A. Johnston, P. A. Johnston, Drug Discovery Today, 7: 353 (2002); D. L. Boger, J. Deshamais, K. Capps, Angew. Chem. Int. Ed., 42: 4138 (2003); S. Wang, T. B. Sim, Y.-S. Kim, Y.-T. Chang, Cum Opin. Cham. Biol., 8: 371 (2004)). We have examined the application of the gold nanoparticle aggregates for high throughput screening of endonuclease inhibitors by visual inspection. […] Thus, we can determine potencies of inhibitor using color change as a function of time. […] The trend of potencies of inhibitors was determined to be DAPI>EB>DNR>9-AA, EIPT, and AQ2A>AMSA, which is consistent with the control experiments involving serial analysis of each inhibitors with nanoparticle-free duplex DNA.
Two separate types of DNA-AuNPs were prepared by functionalizing 13 nm gold nanoparticles with two different thiol-modified oligonucleotide strands, AuNP-3 and AuNP-4. AuNP-3 was functionalized with 3′-hydroxyl-modified and 5′-thiol-modified 15-mer oligonucleotides (DNA-3 sequence: 5′-SH-A10-CGTTAGGACTTACGC-OH-3′, SEQ ID NO:3). DNA-3 is complementary to one-half of the 30-mer linker oligonucleotide (DNA-linker oligonucleotide sequence: 5′ […]-3′, SEQ ID NO:5). AuNP-4 was functionalized with 3′-thiolated and 5′-phosphorylated 15-mer oligonucleotides (DNA-4: 5′-PO4^3−-TTATAACTATTCCTA-A10-SH-3′, SEQ ID NO:4) that are complementary to the other half of the linker-oligonucleotide. After combining the three components, AuNP-3 and AuNP-4 (each at 3 nM) as well as the linker-oligonucleotides (3 μM), in the presence of ligation buffer (50 mM Tris-HCl buffer pH 7.5, 5 mM MgCl2, […], 0.05 mg/ml BSA, T4 DNA Ligase 4.000 units/ml), the DNAs assemble to form a three-strand DNA hybridization complex. First the linker-oligonucleotide acts as templates to co-align the 3′-hydroxyl group of the DNA-3 and the 5′-phosphate group of the DNA-4. Then the T4 DNA Ligase catalyzes the formation of a phosphodiester bond between the 3′-hydroxyl and the 5′-phosphate groups of DNA-3 and DNA-4, covalently joining DNA-3 and DNA-4 to form a 30-mer oligonucleotide. This method yield stable 30-base-pair double stranded links between the AuNPs. Since the nanoparticles aggregate, a red-to-purple color change can be observed.
The prepared gold nanoparticle aggregate was washed (3 times) with DNase I buffer (10 mM sodium phosphate buffer pH 7.0, 0.25 mM MgCl2). The assay was initiated by adding DNase I (10-50 units/ml) and the hydrolysis kinetics were monitored by a UV-vis spectrum at the extinction of 520 nm with stirring at room temperature.

The subject of another test is duplex DNA. Briefly: Melting temperature of duplex DNA (without nanoparticles) in the presence of DNA binding molecule. The settings on record: DNA duplex 2.0 μM, sodium phosphate buffer 10 mM pH 7.0, NaCl 100 mM, DNA binding molecule 5.0 μM, control 61.0.
Test [2] concerns DNase I. Kind of test: Colorimetric DNase I inhibition assay, hybridized gold nanoparticle aggregates without linker oligonucleotide (Example 1). The settings on record: inhibitor 1 μM, DNase I 15 units/ml, extinction at 520 nm, room temperature; control 6.8 min. The test is classed as biochemical. As to the method:
In addition to screening enzyme activity, one can easily use the assay to evaluate the efficiency of inhibitors of DNase I. In a typical screening experiment, DNase I (15 units/ml) was added to solutions of the DNA-linked gold nanoparticle aggregates in the presence of one of the following DNA binding molecules: amsacrine (AMSA), anthraquinone-2-carboxylic acid (AQ2A), 9-aminoacridine (9-AA), ellipticine (EIPT), daunorubicin (DNR), ethidium bromide (EB) and 4′,6-diamidedino-2-phenylindole (DAPI) (1 μM), respectively. These DNA binding molecules are known to inhibit DNase I. (See R. A. Ikeda, P. B. Dervan, J. Am. Chem. Soc., 104: 296 (1982); S. M. Forrow, M. Lee, R. L. Souhami, J. A. Hartley, Chem. Biol. Interact., 96: 125 (1995); P. G. Baraldi, A. Bovero, F. Fruttarolo, D. Preti, M. A. Tabrizi, M. G. Pavani, R. Romagnoli, Med. Res. Rev., 24: 475 (2004)). Extinction was monitored at 520 nm as a function of time (sample scan rate=5 min^−), and the color of the solution was followed with the naked eye. The time at which 50% of the aggregate is hydrolyzed (TH) can be used as a measure of inhibition (FIG. 6). The inhibitors decrease DNase I activity and increase the TH and, therefore, the corresponding time required for a color change in the solution. […] The trend is determined based on TH, which is consistent with the relative binding affinities of the inhibitors to DNA, as determined by measuring the melting temperature of the duplex DNA in the presence of each DNA-binding molecule (FIG. 6 and Table 1 below).
The relative binding affinities of the inhibitors to DNA are consistent with the hydrolysis time (TH) of the aggregates by DNase I in the presence of a specific inhibitor. TH is determined by measuring the extinction at 520 nm and determining when half of the particles composing the aggregates have been released.
AuNP-1 and AuNP-2 were functionalized with 3′-thiol-modified 30-mer oligonucleotides (AuNP-1, DNA-1 sequence: 5′-[…]-A10-SH-3′, SEQ ID NO: 1; AuNP-2, DNA-2 sequence: 5′-[…]-A10-SH-3′, SEQ ID NO:2) using previously reported methods. (See J. J. Storhoff, R. Elghanian, R. C. Mucic, C. A. Mirkin, R. L. Letsinger, J. Am. Chem. Soc., 120: 1959 (1998)). After combining 1 ml aliquots of the two probes, AuNP-1 and AuNP-2 (each at 3 nM), in hybridization buffer (50 mM Tris-HCl buffer pH 7.0, 2 mM MgCl2), the mixture was heated to 90° C. and held at this temperature for 10 minutes.
The pre-prepared gold nanoparticle aggregates were washed (3 times) with DNase I buffer (10 mM sodium phosphate buffer pH 7.0, 0.75 mM MgCl2). They were then resuspended in 1 ml of DNase I buffer. A 10 μL aliquot of each of the endonuclease inhibitors (0.1 mM) was then added to a 1 ml solution of the aggregates, respectively, and incubated for 10 minutes. The assay was initiated by adding DNase I, and the hydrolysis kinetics were monitored by UV-vis spectroscopy (Cary 5000, Varian). The solution was continuously stirred with a magnetic stir bar at room temperature to keep the aggregates suspended.

On to `O=C(O)c1ccc2c(c1)C(=O)c1ccccc1C2=O` [AQ2A, anthraquinone-2-carboxylic acid], for which the “t (releasing time; time required to hydrolyze 50% of the aggregates)” value in the test with DNase I [1] came to 14.5 min. Moreover, the “Tm (melting temperature of duplex DNA in the presence of endonuclease inhibitor)” value in the test with duplex DNA (Table 1) was 62.5 °C; in the test with duplex DNA (Table 2, at 260 nm) it was 62.5 °C. Also, in the test with DNase I [2], the “TH (time at which 50% of the aggregate is hydrolyzed by DNase I)” value came out at 19.6 min.

Regarding `Cc1c2ccncc2c(C)c2c1[nH]c1ccccc12` [EIPT, ellipticine], in the test with DNase I [1], the “t (releasing time; time required to hydrolyze 50% of the aggregates)” value came out at 15.0 min. Besides, the “Tm (melting temperature of duplex DNA in the presence of endonuclease inhibitor)” value in the test on duplex DNA (Table 1) is 63.0 °C; with duplex DNA (Table 2, at 260 nm), 63.0 °C. For the same compound, the “TH (time at which 50% of the aggregate is hydrolyzed by DNase I)” value in the test with DNase I [2] came out at 25.2 min.

With `COc1cccc2c1C(=O)c1c(O)c3c(c(O)c1C2=O)C[C@@](O)(C(C)=O)C[C@@H]3O[C@H]1C[C@H](N)[C@H](O)[C@H](C)O1` [DNR, daunorubicin], the “t (releasing time; time required to hydrolyze 50% of the aggregates)” value in the test with DNase I [1] is 31.5 min. Also, the “Tm (melting temperature of duplex DNA in the presence of endonuclease inhibitor)” value with duplex DNA (Table 1) stood at 65.5 °C; with duplex DNA (Table 2, at 260 nm) it was 65.5 °C. Moreover, the “TH (time at which 50% of the aggregate is hydrolyzed by DNase I)” value in the test on DNase I [2] stood at 43.2 min.

Regarding `Nc1c2ccccc2nc2ccccc12` [9-AA, 9-aminoacridine], the “t (releasing time; time required to hydrolyze 50% of the aggregates)” value with DNase I [1] came out at 16.0 min. In addition, the “Tm (melting temperature of duplex DNA in the presence of endonuclease inhibitor)” value in the test with duplex DNA (Table 1) amounted to 62.5 °C; in the test with duplex DNA (Table 2, at 260 nm) it was 62.5 °C. The “TH (time at which 50% of the aggregate is hydrolyzed by DNase I)” value in the test on DNase I [2] worked out at 24.6 min.

In the case of `N=C(N)c1ccc(-c2cc3ccc(C(=N)N)cc3[nH]2)cc1` [DAPI, 4′,6-diamidedino-2-phenylindole], in the test with DNase I [1], the “t (releasing time; time required to hydrolyze 50% of the aggregates)” value was greater than 1440 min. Besides, the “color change of aggregate solution by visual inspection after adding DNase I (FIG. 10)” value in the test with DNase I [1] (visual inspection, purple to red as a function of reaction time, no or slow change indicates inhibition) was “remains light purple throughout the examination time”. Besides, the “Tm (melting temperature of duplex DNA in the presence of endonuclease inhibitor)” value turned out to be 77.0 °C in the test with duplex DNA (Table 1) and 77.0 °C with duplex DNA (Table 2, at 260 nm). The “TH (time at which 50% of the aggregate is hydrolyzed by DNase I)” value in the test with DNase I [2] came out at 101.2 min.
